According to the supplement of paper PMC12463676, “Small-molecule dissolution of stress granules by redox modulation benefits ALS models” (Nature Chemical Biology, 2025):

Tests used:
lipoamide = compound: NC(=O)CCCCC1CCSS1 [lipoamide]; assay: thermal stability z-score vs DMSO; higher = more thermally stabilized by treatment; details: HeLa, lipoamide concentration 100 µM
Experimental: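 Cellular thermal proteome profiling in HeLa cells. Cells were treated with 100 µM lipoamide for 1 h, with or without 1 mM arsenate for a further 1 h, then heated to ten temperatures (37-66.3 °C), and soluble protein was quantified by TMT mass spectrometry relative to 0.1% DMSO controls. The thermal stability score (sum of log2 fold changes minus the abundance score) was transformed to a z-score; mean of n = 3 experiments.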

potassium arsenate = compound: O=[As]([O-])(O)O.[K+] [potassium arsenate]; assay: as above; details: HeLa; arsenate concentration 1 mM
Experimental: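 Cellular thermal proteome profiling in HeLa cells treated with 1 mM arsenate for 1 h (DMSO pretreatment), heated to ten temperatures (37-66.3 °C). Soluble protein was quantified by TMT mass spectrometry relative to DMSO controls; the thermal stability score was transformed to a z-score; mean of n = 3 experiments.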

[1] = arsenate co-treatment: 1 mM arsenate 1 h
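Note: each temperature applied for 3 min, abundance score taken as mean log2 fold change at the two lowest temperatures, z-score obtained by mean subtraction and division by SD.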

Chain of UniProt Q9NZB2 (Q9NZB2 whole entry): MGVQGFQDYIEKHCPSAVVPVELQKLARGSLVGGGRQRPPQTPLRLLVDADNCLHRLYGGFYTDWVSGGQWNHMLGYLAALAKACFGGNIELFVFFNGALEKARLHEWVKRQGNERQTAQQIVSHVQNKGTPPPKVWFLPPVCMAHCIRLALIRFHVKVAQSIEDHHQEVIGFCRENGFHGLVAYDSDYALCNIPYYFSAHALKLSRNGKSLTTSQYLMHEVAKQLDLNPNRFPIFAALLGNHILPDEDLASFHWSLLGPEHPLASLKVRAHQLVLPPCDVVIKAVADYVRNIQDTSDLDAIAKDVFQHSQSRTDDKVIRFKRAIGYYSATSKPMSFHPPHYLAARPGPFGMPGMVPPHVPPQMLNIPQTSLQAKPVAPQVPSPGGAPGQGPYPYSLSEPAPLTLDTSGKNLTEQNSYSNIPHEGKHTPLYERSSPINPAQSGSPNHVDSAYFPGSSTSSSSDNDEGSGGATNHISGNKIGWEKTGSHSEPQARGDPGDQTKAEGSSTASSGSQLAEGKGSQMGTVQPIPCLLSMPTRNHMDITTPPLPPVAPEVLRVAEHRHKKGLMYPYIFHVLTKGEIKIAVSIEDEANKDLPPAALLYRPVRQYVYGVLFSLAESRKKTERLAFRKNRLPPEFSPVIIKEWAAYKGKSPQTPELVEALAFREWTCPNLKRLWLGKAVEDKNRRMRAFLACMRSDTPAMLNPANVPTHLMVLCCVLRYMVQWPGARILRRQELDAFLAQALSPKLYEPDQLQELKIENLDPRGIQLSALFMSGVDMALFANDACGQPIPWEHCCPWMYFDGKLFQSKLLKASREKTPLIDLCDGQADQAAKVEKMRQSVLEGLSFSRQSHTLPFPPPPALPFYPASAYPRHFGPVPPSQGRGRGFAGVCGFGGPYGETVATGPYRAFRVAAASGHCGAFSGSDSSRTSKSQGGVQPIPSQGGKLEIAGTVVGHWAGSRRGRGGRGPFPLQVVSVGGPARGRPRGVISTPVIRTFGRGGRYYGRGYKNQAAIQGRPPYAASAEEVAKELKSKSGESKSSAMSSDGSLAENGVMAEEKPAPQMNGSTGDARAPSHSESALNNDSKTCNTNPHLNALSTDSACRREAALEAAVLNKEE
Chain of UniProt Q5TC12 (Q5TC12 whole entry): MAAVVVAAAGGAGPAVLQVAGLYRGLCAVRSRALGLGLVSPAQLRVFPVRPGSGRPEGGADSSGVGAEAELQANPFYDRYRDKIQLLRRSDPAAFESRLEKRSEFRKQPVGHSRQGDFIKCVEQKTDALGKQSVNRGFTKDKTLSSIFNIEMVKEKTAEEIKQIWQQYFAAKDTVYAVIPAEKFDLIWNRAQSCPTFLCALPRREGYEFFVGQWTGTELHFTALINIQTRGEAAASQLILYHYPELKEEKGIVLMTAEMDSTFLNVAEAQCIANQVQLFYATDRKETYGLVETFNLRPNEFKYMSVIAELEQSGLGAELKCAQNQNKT
Chain of UniProt Q3MIP1 (Q3MIP1 whole entry): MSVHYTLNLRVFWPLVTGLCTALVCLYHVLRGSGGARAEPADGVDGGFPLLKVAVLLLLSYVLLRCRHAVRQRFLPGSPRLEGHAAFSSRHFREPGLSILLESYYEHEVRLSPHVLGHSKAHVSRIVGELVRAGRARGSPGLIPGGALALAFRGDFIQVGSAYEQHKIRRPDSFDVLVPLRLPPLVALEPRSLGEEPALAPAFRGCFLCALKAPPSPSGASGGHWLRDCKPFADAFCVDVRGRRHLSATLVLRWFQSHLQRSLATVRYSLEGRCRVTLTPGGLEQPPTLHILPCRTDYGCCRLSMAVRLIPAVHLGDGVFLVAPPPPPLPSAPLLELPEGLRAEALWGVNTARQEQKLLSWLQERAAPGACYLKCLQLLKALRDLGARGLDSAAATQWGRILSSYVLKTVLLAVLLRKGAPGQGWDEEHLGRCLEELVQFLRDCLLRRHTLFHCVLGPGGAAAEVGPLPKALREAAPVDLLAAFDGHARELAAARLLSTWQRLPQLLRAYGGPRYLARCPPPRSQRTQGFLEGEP
Chain of UniProt Q99543 (Q99543 whole entry): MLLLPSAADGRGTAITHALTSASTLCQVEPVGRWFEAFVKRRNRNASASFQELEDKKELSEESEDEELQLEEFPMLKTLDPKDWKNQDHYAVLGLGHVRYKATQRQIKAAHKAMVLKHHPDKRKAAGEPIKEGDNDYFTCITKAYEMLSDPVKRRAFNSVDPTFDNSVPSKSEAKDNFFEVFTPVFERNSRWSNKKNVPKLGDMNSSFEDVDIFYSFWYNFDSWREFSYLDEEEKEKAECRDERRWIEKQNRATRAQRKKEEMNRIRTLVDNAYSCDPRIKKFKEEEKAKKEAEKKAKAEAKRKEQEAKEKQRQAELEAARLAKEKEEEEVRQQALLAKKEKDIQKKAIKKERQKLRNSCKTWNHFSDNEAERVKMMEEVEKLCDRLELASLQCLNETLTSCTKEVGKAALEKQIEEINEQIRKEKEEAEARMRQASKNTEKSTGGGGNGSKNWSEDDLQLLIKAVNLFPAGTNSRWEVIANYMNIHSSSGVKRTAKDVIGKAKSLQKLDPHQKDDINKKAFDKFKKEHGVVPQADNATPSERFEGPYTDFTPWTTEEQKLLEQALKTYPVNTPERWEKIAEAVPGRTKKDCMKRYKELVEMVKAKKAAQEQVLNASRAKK
Chain of UniProt Q9H832 (Q9H832 whole entry): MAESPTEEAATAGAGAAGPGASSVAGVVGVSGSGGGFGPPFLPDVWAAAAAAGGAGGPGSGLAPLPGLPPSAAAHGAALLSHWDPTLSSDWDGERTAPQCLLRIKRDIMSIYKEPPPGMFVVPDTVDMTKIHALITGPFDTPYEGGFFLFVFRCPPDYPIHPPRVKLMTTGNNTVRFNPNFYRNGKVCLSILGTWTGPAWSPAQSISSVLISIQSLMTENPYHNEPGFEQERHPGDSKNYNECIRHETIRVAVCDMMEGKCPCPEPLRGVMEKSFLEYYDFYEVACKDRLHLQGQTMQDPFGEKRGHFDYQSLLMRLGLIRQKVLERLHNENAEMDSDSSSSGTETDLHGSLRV
Chain of UniProt Q9Y3E5 (Q9Y3E5 whole entry): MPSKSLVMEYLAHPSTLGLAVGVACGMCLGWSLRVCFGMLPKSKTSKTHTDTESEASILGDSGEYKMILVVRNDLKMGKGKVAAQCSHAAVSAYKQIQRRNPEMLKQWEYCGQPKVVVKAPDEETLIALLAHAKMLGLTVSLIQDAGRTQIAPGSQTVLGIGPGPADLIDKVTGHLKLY
Chain of UniProt Q9UBH6 (Q9UBH6 whole entry): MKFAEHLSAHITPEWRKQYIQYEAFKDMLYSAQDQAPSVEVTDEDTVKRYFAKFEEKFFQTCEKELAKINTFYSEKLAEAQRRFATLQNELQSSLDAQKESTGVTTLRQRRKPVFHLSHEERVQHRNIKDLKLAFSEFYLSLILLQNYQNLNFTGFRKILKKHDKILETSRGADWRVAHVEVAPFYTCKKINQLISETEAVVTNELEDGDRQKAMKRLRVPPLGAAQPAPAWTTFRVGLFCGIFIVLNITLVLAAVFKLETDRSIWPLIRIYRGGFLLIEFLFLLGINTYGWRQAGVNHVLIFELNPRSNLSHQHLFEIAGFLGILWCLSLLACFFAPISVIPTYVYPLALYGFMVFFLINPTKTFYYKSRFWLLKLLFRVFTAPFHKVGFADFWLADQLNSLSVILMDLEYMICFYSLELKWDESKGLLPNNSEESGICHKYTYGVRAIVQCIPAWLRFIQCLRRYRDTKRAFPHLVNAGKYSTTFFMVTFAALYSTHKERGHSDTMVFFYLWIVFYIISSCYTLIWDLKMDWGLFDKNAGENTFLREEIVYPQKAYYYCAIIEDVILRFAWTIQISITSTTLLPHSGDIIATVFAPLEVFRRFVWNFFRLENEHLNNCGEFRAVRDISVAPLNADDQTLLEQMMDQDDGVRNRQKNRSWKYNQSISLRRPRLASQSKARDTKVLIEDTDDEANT
Chain of UniProt Q9UPN7 (Q9UPN7 whole entry): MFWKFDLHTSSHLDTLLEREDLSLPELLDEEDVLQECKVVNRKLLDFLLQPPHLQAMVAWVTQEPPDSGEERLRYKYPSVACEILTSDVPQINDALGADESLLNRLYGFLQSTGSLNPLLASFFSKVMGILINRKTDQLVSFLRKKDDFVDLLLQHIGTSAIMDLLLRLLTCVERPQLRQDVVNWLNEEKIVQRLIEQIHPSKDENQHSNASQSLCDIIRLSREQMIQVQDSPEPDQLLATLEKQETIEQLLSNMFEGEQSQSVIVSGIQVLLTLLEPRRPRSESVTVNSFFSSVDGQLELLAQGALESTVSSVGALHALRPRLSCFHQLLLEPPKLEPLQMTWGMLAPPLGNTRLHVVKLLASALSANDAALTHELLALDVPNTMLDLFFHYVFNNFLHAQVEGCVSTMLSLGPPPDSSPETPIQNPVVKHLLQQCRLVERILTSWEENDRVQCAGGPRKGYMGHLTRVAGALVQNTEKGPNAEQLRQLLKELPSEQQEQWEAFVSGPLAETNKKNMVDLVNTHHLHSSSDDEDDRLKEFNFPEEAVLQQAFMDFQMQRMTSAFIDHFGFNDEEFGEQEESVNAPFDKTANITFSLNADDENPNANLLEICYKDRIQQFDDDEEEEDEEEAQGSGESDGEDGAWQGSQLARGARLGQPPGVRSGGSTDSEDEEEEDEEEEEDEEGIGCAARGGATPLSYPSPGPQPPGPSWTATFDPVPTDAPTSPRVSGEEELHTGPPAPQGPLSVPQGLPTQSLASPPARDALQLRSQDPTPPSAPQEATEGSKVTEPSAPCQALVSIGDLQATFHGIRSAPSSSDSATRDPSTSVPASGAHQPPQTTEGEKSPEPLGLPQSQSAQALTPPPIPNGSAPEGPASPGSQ
Chain of UniProt Q14847 (Q14847 whole entry): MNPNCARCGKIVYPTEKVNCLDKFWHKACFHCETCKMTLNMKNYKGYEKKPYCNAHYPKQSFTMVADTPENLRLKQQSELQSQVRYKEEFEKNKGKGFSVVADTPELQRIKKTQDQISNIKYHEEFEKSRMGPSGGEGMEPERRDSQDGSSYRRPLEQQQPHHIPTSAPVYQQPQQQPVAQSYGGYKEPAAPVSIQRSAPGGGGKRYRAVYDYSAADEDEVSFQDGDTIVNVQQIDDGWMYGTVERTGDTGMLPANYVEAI

Target	thermal stability z-score (lipoamide; [1])	thermal stability z-score (lipoamide; arsenate co-treatment: none)	thermal stability z-score (potassium arsenate)
IPO4 (UniProt Q8TEX9)	-0.55	-0.394	0.0408
KIFC3 (UniProt Q9BVG8)	-0.119	-0.358	-0.23
RBM6 (UniProt P78332)	-0.00588	0.0644	0.000188
FBLN1 (UniProt P23142)	-2.93	-2.25	1.29
METAP2 (UniProt P50579)	0.0427	0.326	0.409
BAG5 (UniProt Q9UL15)	0.228	0.437	-0.198
IDH3B (UniProt O43837)	0.075	-1.17	-1.28
DNAJC2 (UniProt Q99543)	-0.0501	0.0208	1.09
ACADM (UniProt P11310)	0.376	0.186	-1.07
NOL12|V9GYY5 (UniProt V9GYY5)	0.0645	-1.5	0.699
PTRH2 (UniProt Q9Y3E5)	-0.239	-0.143	-0.0653
TMEM263 (UniProt Q8WUH6)	0.283	-0.54	1.43
C3 (UniProt P01024)	-1.67	-1.75	-0.371
FASTKD2 (UniProt Q9NYY8)	-0.22	0.158	0.445
MAPK9 (UniProt P45984)	0.00773	-0.817	-0.98
DDX49 (UniProt Q9Y6V7)	-0.368	-0.359	-0.153
WARS (UniProt P23381)	0.561	0.612	0.737
RAB14 (UniProt P61106)	0.738	0.522	0.48
XPR1 (UniProt Q9UBH6)	-0.458	-0.47	0.209
UBE2E2 (UniProt Q96LR5)	-0.607	-0.124	4.13
PDXDC1 (UniProt Q6P996)	-0.964	-0.497	0.73
ATP6V0A2 (UniProt Q9Y487)	-0.105	0.146	-0.424
RIC8A (UniProt Q9NPQ8)	-0.305	-0.238	0.476
CETN2 (UniProt P41208)	0.767	0.569	0.798

Target	thermal stability z-score (lipoamide; [1])	thermal stability z-score (lipoamide; arsenate co-treatment: none)	thermal stability z-score (potassium arsenate)
UBE2Z (UniProt Q9H832)	-0.25	-0.264	-0.55
STRIP1 (UniProt Q5VSL9)	0.978	1.5	1.36
ALG6 (UniProt Q9Y672)	0.3	0.171	-0.233
MELK (UniProt Q14680)	-0.0697	-0.0146	-0.32
ANXA5 (UniProt P08758)	1.34	1.22	0.601
ATPAF1 (UniProt Q5TC12)	-0.471	-0.084	-0.64
PTCD2 (UniProt Q8WV60)	0.00948	-0.0661	-0.0322
CCDC47 (UniProt Q96A33)	-0.4	-0.332	-1.21
DNAJB14 (UniProt Q8TBM8)	0.0418	0.157	-0.17
GOLPH3L (UniProt Q9H4A5)	0.105	-1.21	-0.58
NPLOC4 (UniProt Q8TAT6)	-0.0676	0.0243	-0.0761
ITPRIPL2 (UniProt Q3MIP1)	-0.176	-0.34	-0.0231
RNGTT (UniProt O60942)	-0.0218	0.0305	-0.0249
HINT3 (UniProt Q9NQE9)	0.23	0.339	-1.57
RNF187 (UniProt Q5TA31)	-0.474	-1.96	-0.503
ARIH2 (UniProt O95376)	0.203	-0.216	-0.521
VANGL1 (UniProt Q8TAA9)	0.696	0.817	-0.242
PRCP (UniProt P42785)	-0.242	-0.33	0.42
YWHAE (UniProt P62258)	0.149	0.0341	-0.368
ARHGAP5 (UniProt Q13017)	0.182	-0.703	-0.265
EZR (UniProt P15311)	1.01	0.661	-0.481
RALGAPA1 (UniProt Q6GYQ0)	-0.102	-0.115	-2.14
FAM120A (UniProt Q9NZB2)	-0.00535	-0.0221	0.686
EIF4H (UniProt Q15056)	0.493	0.714	0.688

Target	thermal stability z-score (lipoamide; [1])	thermal stability z-score (lipoamide; arsenate co-treatment: none)	thermal stability z-score (potassium arsenate)
BAG1 (UniProt Q99933)	-0.351	0.0085	-0.464
NDUFS4 (UniProt O43181)	0.511	0.477	0.201
COL5A2 (UniProt P05997)	-3.8	-3.3	1.12
KNSTRN (UniProt Q9Y448)	-0.729	-0.171	1.36
CSTF2T (UniProt Q9H0L4)	0.0672	-0.0883	0.141
ELOVL5 (UniProt Q9NYP7)	-0.00466	-0.551	0.0723
AIMP2 (UniProt Q13155)	-0.616	-0.263	0.702
SACM1L (UniProt Q9NTJ5)	-0.145	-0.499	0.448
CHP1 (UniProt Q99653)	0.377	0.436	1.28
ARAP1 (UniProt Q96P48)	-0.133	-0.0899	-0.345
PTPN2 (UniProt P17706)	0.0491	0.308	0.95
DERL1 (UniProt Q9BUN8)	-0.177	-0.185	-0.00515
RPL13A (UniProt P40429)	0.328	0.16	-0.496
PPP6R1 (UniProt Q9UPN7)	-0.476	-0.635	-0.671
CCNB1 (UniProt P14635)	0.729	0.477	1.43
ALG5 (UniProt Q9Y673)	0.39	-0.1	0.347
C19ORF43 (UniProt Q9BQ61)	0.121	0.217	-0.0224
TLK2 (UniProt Q86UE8)	-0.838	0.0336	0.502
LASP1 (UniProt Q14847)	0.387	0.383	-0.178
MAN2A1 (UniProt Q16706)	-0.502	-0.428	-0.264
LUC7L (UniProt Q9NQ29)	-0.243	-0.433	-1.2
MINPP1 (UniProt Q9UNW1)	-3.92	-4.05	-0.105
MOGS (UniProt Q13724)	-1.24	-0.979	0.158
